Test results from publication PMC11062922 (Nature Chemical Biology, 2023).
Several values for one entry are separate records, joined by “and”; a condition that tells them apart may be missing. Identical values can stand only once.

Tests used:
[1] = target: T1, endogenous kinases and other proteins enriched by Kinobeads from mixed lysates of K-562, COLO-205, MV-4-11, SK-N-BE(2) and OVCAR-8 (Homo sapiens, UniProt Q16832); test: Kinobeads competition binding profiling, two doses (100 nM and 1 µM); details: DDR2;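 also: inhibitor preincubated 45 min at 4 °C in cell lysate, then bead pulldown. Bound protein quantified by label-free mass spectrometry relative to DMSO vehicle control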
T1 construct: endogenous in cells

[2] = target: T2, endogenous kinases and other proteins enriched by Kinobeads from mixed lysates of K-562, COLO-205, MV-4-11, SK-N-BE(2) and OVCAR-8 (Homo sapiens, UniProt P51955); test: as above; details: NEK2
T2 construct: endogenous in cells

[3] = target: T3, endogenous kinases and other proteins enriched by Kinobeads from mixed lysates of K-562, COLO-205, MV-4-11, SK-N-BE(2) and OVCAR-8 (Homo sapiens, UniProt Q08345); test: as above; details: DDR1
T3 construct: endogenous in cells

[4] = target: T4, EPHB4 (Homo sapiens, UniProt P54760); test: Kinobeads two-dose competition binding: EPHB4; details: read-out: Lestaurtinib Drugmatrix value, Gene Name EPHB4; target EPHB4; each column = one Lestaurtinib control replicate (batch_R1-R3)
T4 construct: endogenous in cells
T4 sequence (P54760 16-987): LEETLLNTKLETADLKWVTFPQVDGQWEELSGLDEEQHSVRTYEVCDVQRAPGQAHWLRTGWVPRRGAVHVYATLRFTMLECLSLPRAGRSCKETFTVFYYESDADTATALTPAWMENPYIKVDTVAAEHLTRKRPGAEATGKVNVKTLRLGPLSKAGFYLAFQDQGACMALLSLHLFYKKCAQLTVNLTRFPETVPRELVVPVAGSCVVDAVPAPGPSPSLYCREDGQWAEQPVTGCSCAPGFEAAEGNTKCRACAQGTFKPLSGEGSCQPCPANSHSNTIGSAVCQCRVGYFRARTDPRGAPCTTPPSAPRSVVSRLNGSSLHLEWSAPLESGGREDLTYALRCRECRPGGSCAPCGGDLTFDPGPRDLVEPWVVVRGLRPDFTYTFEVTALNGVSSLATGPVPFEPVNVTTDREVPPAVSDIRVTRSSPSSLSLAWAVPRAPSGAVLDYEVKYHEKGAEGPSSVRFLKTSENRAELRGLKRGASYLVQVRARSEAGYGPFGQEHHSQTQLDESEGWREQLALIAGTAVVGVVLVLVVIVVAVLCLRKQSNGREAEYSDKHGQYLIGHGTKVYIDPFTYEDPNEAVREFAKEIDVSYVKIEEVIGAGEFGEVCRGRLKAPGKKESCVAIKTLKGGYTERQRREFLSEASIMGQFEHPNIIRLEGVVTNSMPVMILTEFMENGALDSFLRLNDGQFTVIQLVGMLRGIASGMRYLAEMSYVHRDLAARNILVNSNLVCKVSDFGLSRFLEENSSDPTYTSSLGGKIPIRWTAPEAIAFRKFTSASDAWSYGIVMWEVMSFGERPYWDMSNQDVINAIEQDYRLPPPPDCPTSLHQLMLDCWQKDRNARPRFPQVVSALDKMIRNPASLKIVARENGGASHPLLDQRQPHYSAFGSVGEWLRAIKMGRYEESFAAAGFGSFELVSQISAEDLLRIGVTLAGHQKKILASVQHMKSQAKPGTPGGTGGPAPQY

[5] = target: T5, BUB1 (Homo sapiens, UniProt O43683); test: Kinobeads two-dose competition binding: BUB1; details: read-out: Lestaurtinib Drugmatrix value, Gene Name BUB1
T5 construct: endogenous in cells

[6] = target: T6, PRKAG2 (Homo sapiens, UniProt Q9UGJ0); test: Kinobeads competition binding, Lestaurtinib control replicates: PRKAG2; details: read-out: Lestaurtinib Drugmatrix value, PRKAG2; Gene Name PRKAG2; one column per experiment number and replicate (R1-R3)
T6 construct: endogenous in cells

[7] = target: T7, DYRK1A (Homo sapiens, UniProt Q13627); test: Kinobeads two-dose competition binding: DYRK1A; details: read-out: Lestaurtinib Drugmatrix value, Gene Name DYRK1A, target DYRK1A; each column = one Lestaurtinib control replicate (batch_R1-R3)
T7 construct: endogenous in cells

[8] = target: T8, EPHA2 (Homo sapiens, UniProt P29317); test: Kinobeads two-dose competition binding: EPHA2; details: read-out: Lestaurtinib Drugmatrix value, Gene Name EPHA2
T8 construct: endogenous in cells

[9] = target: T9, PIM1 (Homo sapiens, UniProt P11309); test: Kinobeads competition binding, Lestaurtinib control replicates: PIM1; details: read-out: Lestaurtinib Drugmatrix value; Gene Name PIM1; one column per experiment number and replicate (R1-R3)
T9 construct: a mixture of lysates from five cancer cell lines; endogenous in cells

[10] = target: T10, CSK (Homo sapiens, UniProt P41240); test: Kinobeads two-dose competition binding: CSK; details: read-out: Lestaurtinib Drugmatrix value, Gene Name CSK
T10 construct: endogenous in cells

[11] = target: T11, ABL2 (Homo sapiens, UniProt P42684); test: Kinobeads two-dose competition binding: ABL2; details: read-out: Lestaurtinib Drugmatrix value, Gene Name ABL2
T11 construct: endogenous in cells

[12] = target: T12, RIPK3 (Homo sapiens, UniProt Q9Y572); test: Kinobeads full dose-response competition binding: RIPK3; details: Gene Name RIPK3
T12 construct: endogenous in cells

[13] = target: T13, CSNK1D (Homo sapiens, UniProt P48730); test: Kinobeads full dose-response competition binding: CSNK1D; details: Gene Name CSNK1D
T13 construct: endogenous in cells

[14] = target: T14, endogenous kinases and other proteins enriched by Kinobeads from mixed cancer cell lysates (Homo sapiens, UniProt Q9NWZ3); test: Kinobeads pulldown, full dose-response (eight doses); type: binding; details: target IRAK4;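 also: competition with Kinobeads ε after inhibitor preincubation in lysate (5 mg/ml protein) for 45 min at 4 °C, DMSO control, doses 0.3–1,000 nM, label-free LC–MS/MS quantification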
T14 construct: endogenous in cells

[15] = target: T15, endogenous kinases and other proteins enriched by Kinobeads from mixed cancer cell lysates (Homo sapiens, UniProt P27448); test: as above; type: binding; details: target MARK3
T15 construct: endogenous in cells

[16] = target: T16, endogenous kinases and other proteins enriched by Kinobeads from mixed cancer cell lysates (Homo sapiens, UniProt Q96GD4); test: as above; type: binding; details: target AURKB
T16 construct: endogenous in cells

[17] = target: T17, endogenous kinases and other proteins enriched by Kinobeads from mixed cancer cell lysates (Homo sapiens, UniProt P37173); test: as above; type: binding; details: target TGFBR2; read-out: apparent Kd
T17 construct: endogenous in cells

[18] = EC50 with Correction, doses in nM, read-out: apparent Kd
[19] = eight-dose curve fit, doses in nM

For `COc1cc(Nc2ncc3c(C)nc(-c4cc5ccccc5[nH]4)n3n2)cc(OC)c1OC` [GW869516X], the “Kinobeads Data” value [1] was “no target”, the “Kinobeads Data” value [2] was “no target” and the “Kinobeads Data” value [3] was “no target”.
For `C[C@]12O[C@H](C[C@]1(O)CO)n1c3ccccc3c3c4c(c5c6ccccc6n2c5c31)CNC4=O` [Lestaurtinib], the potency estimated from few doses [4] was 207 nM and 689 nM, the potency estimated from few doses [5] was 854 nM and the potency estimated from few doses [6] was 888 nM (2×) and 629 nM and 352 nM and 850 nM and 720 nM. It also gave a potency estimated from few doses [7] of 820 nM, a potency estimated from few doses [8] of 428 nM and a potency estimated from few doses [9] of 860 nM. For the same compound, the potency estimated from few doses [10] was 526 nM and the potency estimated from few doses [11] was 340 nM.
With `NCc1ccc(-c2nc(-c3ccncc3)c(-c3ccc(Cl)c(O)c3)[nH]2)cc1` [SB-476429-A] the “Relative Intensity 0.3nM” value ([12]; 0.3nM compound, DMSO = 1) was 1.0435, the “Relative Intensity 1nM” value ([12]; 1nM compound, DMSO = 1) was 1.078 and the “Relative Intensity 3nM” value ([12]; 3nM compound, DMSO = 1) was 1.023. For the same compound, the “Relative Intensity 10nM” value ([12]; 10nM compound, DMSO = 1) was 0.8405, the “Relative Intensity 30nM” value ([12]; 30nM compound, DMSO = 1) was 0.9631 and the “Relative Intensity 100nM” value ([12]; 100nM compound, DMSO = 1) was 1.023. For the same compound, the “Relative Intensity 300nM” value ([12]; 300nM compound, DMSO = 1) was 0.7216, the “Relative Intensity 1000nM” value ([12]; 1000nM compound, DMSO = 1) was 0.4701 and the Kd [12, 18] was 289 nM. The EC50 [12, 19] was 296 nM, the “Relative Intensity 0.3nM” value ([13]; 0.3nM compound, DMSO = 1) was 0.9053 and the “Relative Intensity 1nM” value ([13]; 1nM compound, DMSO = 1) was 1.1. The “Relative Intensity 3nM” value ([13]; 3nM compound, DMSO = 1) was 1.076, the “Relative Intensity 10nM” value ([13]; 10nM compound, DMSO = 1) was 1.106 and the “Relative Intensity 30nM” value ([13]; 30nM compound, DMSO = 1) was 0.9763. For the same compound, the “Relative Intensity 100nM” value ([13]; 100nM compound, DMSO = 1) was 0.9322, the “Relative Intensity 300nM” value ([13]; 300nM compound, DMSO = 1) was 0.7176 and the “Relative Intensity 1000nM” value ([13]; 1000nM compound, DMSO = 1) was 0.4933. For the same compound, the Kd [13, 18] was 300 nM and the EC50 [13, 19] was 300 nM.
Work on `Cn1cc(-c2nc(N[C@@H]3CCCC[C@@H]3N)c(F)c3c2C(=O)NC3)cn1` [TAK659] yielded an EC50 [14] of 718 nM, a Kd ([14]; read-out: apparent Kd) of 675 nM and an EC50 [15] of 680 nM. For the same compound, the Kd ([15]; read-out: apparent Kd) was 670 nM, the EC50 [16] was 161 nM and the Kd ([16]; read-out: apparent Kd) was 86.7 nM. For the same compound, the Kd [17] was 2960 nM.
